Assay results published in patent US7259183B2, “Indole, indazole and indoline derivatives as CETP inhibitors” (Hoffmann-La Roche Inc., priority 2004, dated 2007).

Molecular target: T1, CETP (Homo sapiens, UniProt P11597)
T1 sequence (P11597 18-493): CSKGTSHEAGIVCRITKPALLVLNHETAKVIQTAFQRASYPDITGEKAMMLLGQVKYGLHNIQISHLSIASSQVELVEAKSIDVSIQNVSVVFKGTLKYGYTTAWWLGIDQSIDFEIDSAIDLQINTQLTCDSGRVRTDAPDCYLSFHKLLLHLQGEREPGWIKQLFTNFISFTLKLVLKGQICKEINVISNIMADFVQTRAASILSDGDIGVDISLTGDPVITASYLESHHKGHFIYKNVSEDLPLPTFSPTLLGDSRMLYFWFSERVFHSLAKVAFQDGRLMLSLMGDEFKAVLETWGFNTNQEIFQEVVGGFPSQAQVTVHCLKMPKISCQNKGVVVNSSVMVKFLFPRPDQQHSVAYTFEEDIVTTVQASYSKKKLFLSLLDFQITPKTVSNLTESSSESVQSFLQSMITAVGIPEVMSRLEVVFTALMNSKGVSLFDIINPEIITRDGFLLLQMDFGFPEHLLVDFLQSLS
Experiment: CETP inhibition, buffer assay system (SPA, radiolabeled cholesteryl ester transfer from HDL to LDL)
Assay type: biochemical
Conditions: partially purified CETP, selected compounds, read-out: 1C50
Protocol: Activity of CETP inhibitors was determined using a buffer assay system. Partially purified CETP transferred radiolabeled cholesteryl ester from HDL donor particles to biotin-labeled LDL acceptor particles. The reaction was stopped by addition of streptavidin-coupled scintillation proximity assay (SPA) beads. These beads captured the biotinylated acceptor particles and transferred radioactivity was measured. The assay system was purchased and performed according to manufacturer's recommendations (Amersham Biosciences). Inhibitory activity of compounds was determined as percentage of positive control activity containing CETP together with donor and acceptor particles. Serial dilution of compounds was performed in order to determine the IC50 values.

Row | IC50 | SMILES
1 | 0.539 µM | CC(C)CCN(Cc1ccc(C(C)(C)C)cc1)C(=O)c1cccc2cc[nH]c12 [Compound 1, 1H-Indole-7-carboxylic acid (4-tert-butyl-benzyl)-(3-methyl-butyl)-amide]
2 | 0.058 µM | CC(C)(C)c1ccc(CN(CCc2ccc(F)cc2)C(=O)c2cccc3c2NCC3)cc1 [Compound 76, 2,3-Dihydro-1H-indole-7-carboxylic acid (4-tert-butyl-benzyl)-[2-(4-fluoro-phenyl)-ethyl]-amide]
3 | 0.202 µM | CC(C)(C)c1ccc(CN(CCOc2ccc(F)cc2)C(=O)c2cccc3cc[nH]c23)cc1 [Compound 90, 1H-Indole-7-carboxylic acid (4-tert-butyl-benzyl)-[2-(4-fluoro-phenoxy)-ethyl]-amide]
